Test results published in patent US12433865B2, “Compositions comprising PGI2-receptor agonists and processes for the preparation thereof” (Arena Pharmaceuticals, Inc., priority 2018, dated 2025).

Assay: Release (dissolution) profile of capsules, USP Apparatus 2 (paddle)
Format: physicochemical
Source text: USP Apparatus 2 (Paddle Apparatus) is described, for example, in the United States Pharmacopeial Convention, Feb. 1, 2012, Chapter <711> (“Dissolution”), incorporated by reference herein in its entirety. See http://www.usp.org/sites/default/files/usp_pdf/EN/USPNF/revisions/m99470-gc_711.pdf. The assembly from Apparatus 1 is used, except that a paddle formed from a blade and a shaft is used as the stirring element. The shaft is positioned so that its axis is not more than 2 mm from the vertical axis of the vessel at any point and rotates smoothly without significant wobble that could affect the results. The vertical center line of the blade passes through the axis of the shaft so that the bottom of the blade is flush with the bottom of the shaft. A distance of 25±2 mm between the bottom of the blade and the inside bottom of the vessel is maintained during the test. The metallic or suitably inert, rigid blade and shaft comprise a single entity. A suitable two-part detachable design may be used provided the assembly remains firmly engaged during the test. The paddle blade and shaft may be coated with a suitable coating so as to make them inert. The dosage unit is allowed to sink to the bottom of the vessel before rotation of the blade is started. A small, loose piece of nonreactive material, such as not more than a few turns of wire helix, may be attached to dosage units that would otherwise float. Other validated sinker devices may be used.
Unless otherwise specified, the release profiles for capsules were measured using USP Apparatus 2 (paddle).
All release profiles disclosed in Tables 3c-3p were measured with USP Apparatus 2 (paddle) at 50 rpm in 500 mL of aqueous sodium phosphate at a concentration of 0.05 M (pH=6.8). The values in a given table relate to capsules obtained from the same batch. Values shown represent mean values over a number of dissolution tests (“n” in each table) in each case.

O=C(O)COC[C@H]1CC[C@H](COC(=O)N(c2ccccc2)c2ccc(Cl)cc2)CC1 [Compound 1, 2-(((1r,4r)-4-(((4-chlorophenyl)(phenyl)carbamoyloxy)methyl)cyclohexyl)methoxy)acetic acid]
mean value (n = 4) of % of Compound 1 released (Table 3p: size 4 capsule, 0.5 mg Compound 1, Poloxamer 188:food grade GMS 30:70, 735 min): 96.1%
mean value (n = 4) of % of Compound 1 released (Table 3q: size 4 capsule, 0.5 mg Compound 1, Poloxamer 188:food grade GMS 30:70, 30 min): 6.2%
mean value (n = 4) of % of Compound 1 released (Table 3q: size 4 capsule, 0.5 mg Compound 1, Poloxamer 188:food grade GMS 30:70, 60 min): 13.7%
mean value (n = 4) of % of Compound 1 released (Table 3q: size 4 capsule, 0.5 mg Compound 1, Poloxamer 188:food grade GMS 30:70, 120 min): 27.3%
mean value (n = 4) of % of Compound 1 released (Table 3q: size 4 capsule, 0.5 mg Compound 1, Poloxamer 188:food grade GMS 30:70, 180 min): 40.3%
mean value (n = 4) of % of Compound 1 released (Table 3q: size 4 capsule, 0.5 mg Compound 1, Poloxamer 188:food grade GMS 30:70, 240 min): 52.5%
mean value (n = 4) of % of Compound 1 released (Table 3q: size 4 capsule, 0.5 mg Compound 1, Poloxamer 188:food grade GMS 30:70, 360 min): 74.2%
mean value (n = 4) of % of Compound 1 released (Table 3q: size 4 capsule, 0.5 mg Compound 1, Poloxamer 188:food grade GMS 30:70, 480 min): 85.5%
mean value (n = 4) of % of Compound 1 released (Table 3q: size 4 capsule, 0.5 mg Compound 1, Poloxamer 188:food grade GMS 30:70, 600 min): 91.5%
mean value (n = 4) of % of Compound 1 released (Table 3q: size 4 capsule, 0.5 mg Compound 1, Poloxamer 188:food grade GMS 30:70, 720 min): 93.4%
mean value (n = 4) of % of Compound 1 released (Table 3q: size 4 capsule, 0.5 mg Compound 1, Poloxamer 188:food grade GMS 30:70, 735 min): 94.5%
mean value (n = 6) of % of Compound 1 released (Table 3r: size 4 capsule, 0.03 mg Compound 1, Poloxamer 188:food grade GMS 30:70, 60 min): 11%
mean value (n = 6) of % of Compound 1 released (Table 3r: size 4 capsule, 0.03 mg Compound 1, Poloxamer 188:food grade GMS 30:70, 120 min): 23%
mean value (n = 6) of % of Compound 1 released (Table 3r: size 4 capsule, 0.03 mg Compound 1, Poloxamer 188:food grade GMS 30:70, 180 min): 33%
mean value (n = 6) of % of Compound 1 released (Table 3r: size 4 capsule, 0.03 mg Compound 1, Poloxamer 188:food grade GMS 30:70, 240 min): 43%
mean value (n = 6) of % of Compound 1 released (Table 3r: size 4 capsule, 0.03 mg Compound 1, Poloxamer 188:food grade GMS 30:70, 360 min): 62%
mean value (n = 6) of % of Compound 1 released (Table 3r: size 4 capsule, 0.03 mg Compound 1, Poloxamer 188:food grade GMS 30:70, 480 min): 77%
mean value (n = 6) of % of Compound 1 released (Table 3r: size 4 capsule, 0.03 mg Compound 1, Poloxamer 188:food grade GMS 30:70, 600 min): 87%
mean value (n = 6) of % of Compound 1 released (Table 3r: size 4 capsule, 0.03 mg Compound 1, Poloxamer 188:food grade GMS 30:70, 720 min): 91%
mean value (n = 6) of % of Compound 1 released (Table 3r: size 4 capsule, 0.03 mg Compound 1, Poloxamer 188:food grade GMS 30:70, 840 min): 95%
mean value (n = 6) of % of Compound 1 released (Table 3s-1: Storage time = 0, size 4 capsule, 0.03 mg Compound 1, Poloxamer 188:food grade GMS 30:70, 60 min): 16.7%
mean value (n = 6) of % of Compound 1 released (Table 3s-1: Storage time = 0, size 4 capsule, 0.03 mg Compound 1, Poloxamer 188:food grade GMS 30:70, 120 min): 27.5%
mean value (n = 6) of % of Compound 1 released (Table 3s-1: Storage time = 0, size 4 capsule, 0.03 mg Compound 1, Poloxamer 188:food grade GMS 30:70, 180 min): 38.3%
mean value (n = 6) of % of Compound 1 released (Table 3s-1: Storage time = 0, size 4 capsule, 0.03 mg Compound 1, Poloxamer 188:food grade GMS 30:70, 240 min): 50.3%
mean value (n = 6) of % of Compound 1 released (Table 3s-1: Storage time = 0, size 4 capsule, 0.03 mg Compound 1, Poloxamer 188:food grade GMS 30:70, 360 min): 72.3%
mean value (n = 6) of % of Compound 1 released (Table 3s-1: Storage time = 0, size 4 capsule, 0.03 mg Compound 1, Poloxamer 188:food grade GMS 30:70, 480 min): 88.7%
mean value (n = 6) of % of Compound 1 released (Table 3s-1: Storage time = 0, size 4 capsule, 0.03 mg Compound 1, Poloxamer 188:food grade GMS 30:70, 600 min): 96.0%
mean value (n = 6) of % of Compound 1 released (Table 3s-2: Storage time = 2 weeks, size 4 capsule, 0.03 mg Compound 1, Poloxamer 188:food grade GMS 30:70, 60 min): 16.0%
mean value (n = 6) of % of Compound 1 released (Table 3s-2: Storage time = 2 weeks, size 4 capsule, 0.03 mg Compound 1, Poloxamer 188:food grade GMS 30:70, 120 min): 27.7%
mean value (n = 6) of % of Compound 1 released (Table 3s-2: Storage time = 2 weeks, size 4 capsule, 0.03 mg Compound 1, Poloxamer 188:food grade GMS 30:70, 180 min): 39.7%
mean value (n = 6) of % of Compound 1 released (Table 3s-2: Storage time = 2 weeks, size 4 capsule, 0.03 mg Compound 1, Poloxamer 188:food grade GMS 30:70, 240 min): 52.2%
mean value (n = 6) of % of Compound 1 released (Table 3s-2: Storage time = 2 weeks, size 4 capsule, 0.03 mg Compound 1, Poloxamer 188:food grade GMS 30:70, 360 min): 74.6%
mean value (n = 6) of % of Compound 1 released (Table 3s-2: Storage time = 2 weeks, size 4 capsule, 0.03 mg Compound 1, Poloxamer 188:food grade GMS 30:70, 480 min): 89.4%
mean value (n = 6) of % of Compound 1 released (Table 3s-2: Storage time = 2 weeks, size 4 capsule, 0.03 mg Compound 1, Poloxamer 188:food grade GMS 30:70, 600 min): 96.7%
mean value (n = 6) of % of Compound 1 released (Table 3h: size 4 capsule, 0.03 mg Compound 1, Poloxamer 188:food grade GMS 50:50, 60 min): 17.9%
mean value (n = 6) of % of Compound 1 released (Table 3h: size 4 capsule, 0.03 mg Compound 1, Poloxamer 188:food grade GMS 50:50, 120 min): 35.9%
mean value (n = 6) of % of Compound 1 released (Table 3h: size 4 capsule, 0.03 mg Compound 1, Poloxamer 188:food grade GMS 50:50, 180 min): 51.7%
mean value (n = 6) of % of Compound 1 released (Table 3h: size 4 capsule, 0.03 mg Compound 1, Poloxamer 188:food grade GMS 50:50, 240 min): 67.9%
mean value (n = 6) of % of Compound 1 released (Table 3h: size 4 capsule, 0.03 mg Compound 1, Poloxamer 188:food grade GMS 50:50, 300 min): 83.6%
mean value (n = 6) of % of Compound 1 released (Table 3h: size 4 capsule, 0.03 mg Compound 1, Poloxamer 188:food grade GMS 50:50, 360 min): 92.3%
mean value (n = 6) of % of Compound 1 released (Table 3h: size 4 capsule, 0.03 mg Compound 1, Poloxamer 188:food grade GMS 50:50, 480 min): 98.1%
mean value (n = 4) of % of Compound 1 released (Table 3d: size 4 capsule, 0.5 mg Compound 1, Poloxamer 188:food grade GMS 70:30, 30 min): 13.8%
mean value (n = 4) of % of Compound 1 released (Table 3d: size 4 capsule, 0.5 mg Compound 1, Poloxamer 188:food grade GMS 70:30, 60 min): 60.2%
mean value (n = 4) of % of Compound 1 released (Table 3d: size 4 capsule, 0.5 mg Compound 1, Poloxamer 188:food grade GMS 70:30, 120 min): 92.1%
release rate relative to immediate release composition (capsule, Gelucire 50/13:Kolliphor RH40 50:50 (FIG. 3)): substantially reduced
change of release rate after storage (capsule, Gelucire 50/13:Kolliphor RH40 75:25, storage at 40° C. and 75% RH over time (FIG. 4)): significantly increased
release rate, 90:10 ratio relative to 80:20 ratio (capsule, Gelucire 50/13:Kolliphor RH40 90:10 vs 80:20 (FIG. 3)): further reduced
effect of curing in stabilizing the release profile (research grade GMS (lower monoester content) instead of food grade GMS): not as effective
